Source: PubChem BioAssay (NCI)
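GI50 = concentration required for 50% inhibition of growth. Definition used: TGI = concentration required for complete inhibition of growth.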

How the values were obtained:
Experiment in all cases: NCI anticancer screen, dose series, 384-well format
[1] = system: 786-0 renal
[2] = system: A498 renal
[3] = system: A549 NSCLC
[4] = system: ACHN renal
[5] = system: BT-549 breast
[6] = system: CAKI-1 renal
[7] = system: CCRF-CEM leukemia
[8] = system: COLO 205 colon
[9] = system: DU-145 prostate
[10] = system: HCC-2998 colon
[11] = system: HCT-116 colon
[12] = system: HCT-15 colon
[13] = system: HL-60(TB) leukemia
[14] = system: HOP-62 NSCLC
[15] = system: HOP-92 NSCLC
[16] = system: HT29 colon
[17] = system: IGROV1 ovarian
[18] = system: K-562 leukemia
[19] = system: KM12 colon
[20] = system: LOX IMVI melanoma
[21] = system: M14 melanoma
[22] = system: MALME-3M melanoma
[23] = system: MCF7 breast
[24] = system: MDA-MB-231 breast
[25] = system: MDA-MB-435 melanoma
[26] = system: MDA-MB-468 breast
[27] = system: MOLT-4 leukemia
[28] = system: NCI-H226 lung
[29] = system: NCI-H23 lung
[30] = system: NCI-H322M lung
[31] = system: NCI-H460 NSCLC
[32] = system: NCI-H522 lung
[33] = system: NCI/ADR-RES ovarian
[34] = system: OVCAR-3 ovarian
[35] = system: OVCAR-4 ovarian
[36] = system: OVCAR-5 ovarian
[37] = system: OVCAR-8 ovarian
[38] = system: PC-3 prostate
[39] = system: RPMI-8226 leukemia
[40] = system: RXF 393 renal
[41] = system: SF-268 CNS
[42] = system: SF-295 CNS
[43] = system: SF-539 CNS
[44] = system: SK-MEL-2 melanoma
[45] = system: SK-MEL-28 melanoma
[46] = system: SK-MEL-5 melanoma
[47] = system: SK-OV-3 ovarian
[48] = system: SN12C renal
[49] = system: SNB-19 CNS
[50] = system: SR leukemia
[51] = system: SW-620 colon
[52] = system: T-47D breast
[53] = system: TK-10 renal
[54] = system: U251 glioblastoma
[55] = system: UACC-257 melanoma
[56] = system: UACC-62 melanoma
[57] = system: UO-31 renal

COc1nnc2ccc(N3CCC(c4ccc(OCCN5CCN(C)C(=O)[C@H]5C)cc4)CC3)nn12
GI50 [1]: 45.5 nM
TGI [1]: 13400 nM
GI50 [2]: 53.8 nM
TGI [2]: 655 nM
GI50 [3]: 42.5 nM
TGI [3]: 1640 nM
GI50 [4]: 108 nM
TGI [4]: 3050 nM
GI50 [5]: 23.1 nM
TGI [5]: 214 nM
GI50 [6]: 16.9 nM
TGI [6]: 382 nM
GI50 [7]: 26.8 nM
TGI [7]: 166 nM
GI50 [8]: 35.9 nM
TGI [8]: 248 nM
GI50 [9]: 369 nM
TGI [9]: > 100000 nM
GI50 [10]: 13.3 nM
TGI [10]: 48.8 nM
GI50 [11]: 37.7 nM
TGI [11]: 2530 nM
GI50 [12]: 31.7 nM
TGI [12]: 194 nM
GI50 [13]: < 10 nM
TGI [13]: 19.1 nM
GI50 [14]: 27.4 nM
TGI [14]: 475 nM
GI50 [15]: 12.7 nM
TGI [15]: 74.5 nM
GI50 [16]: 28.8 nM
TGI [16]: 2120 nM
GI50 [17]: 29.3 nM
TGI [17]: 162 nM
GI50 [18]: 35 nM
TGI [18]: 3710 nM
GI50 [19]: 46 nM
TGI [19]: 12500 nM
GI50 [20]: 27.2 nM
TGI [20]: 61 nM
GI50 [21]: 18.3 nM
TGI [21]: 1570 nM
GI50 [22]: 73.8 nM
TGI [22]: 791 nM
GI50 [23]: 11.7 nM
TGI [23]: 158 nM
GI50 [24]: 46.2 nM
TGI [24]: 2570 nM
GI50 [25]: 75.9 nM
TGI [25]: > 100000 nM
GI50 [26]: < 10 nM
TGI [26]: 51.2 nM
GI50 [27]: 14.3 nM
TGI [27]: 37.7 nM
GI50 [28]: 38.9 nM
TGI [28]: 416 nM
GI50 [29]: 62.7 nM
TGI [29]: 629 nM
GI50 [30]: 28.9 nM
TGI [30]: 640 nM
GI50 [31]: 58.7 nM
TGI [31]: 15400 nM
GI50 [32]: < 10 nM
TGI [32]: 46 nM
GI50 [33]: 269 nM
TGI [33]: 2180 nM
GI50 [34]: 17.2 nM
TGI [34]: 135 nM
GI50 [35]: 10.2 nM
TGI [35]: 40.2 nM
GI50 [36]: 60.5 nM
TGI [36]: 2970 nM
GI50 [37]: 23.9 nM
TGI [37]: 218 nM
GI50 [38]: 122 nM
TGI [38]: 90700 nM
GI50 [39]: 12.2 nM
TGI [39]: 33.8 nM
GI50 [40]: 22.8 nM
TGI [40]: 78.8 nM
GI50 [41]: 58.6 nM
TGI [41]: 14400 nM
GI50 [42]: 86.4 nM
TGI [42]: 4970 nM
GI50 [43]: 53.9 nM
TGI [43]: 8620 nM
GI50 [44]: < 10 nM
TGI [44]: 41.3 nM
GI50 [45]: 30.6 nM
TGI [45]: 1490 nM
GI50 [46]: 17.8 nM
TGI [46]: 98.6 nM
GI50 [47]: 17.3 nM
TGI [47]: 144 nM
GI50 [48]: 165 nM
TGI [48]: 1480 nM
GI50 [49]: 311 nM
TGI [49]: 77900 nM
GI50 [50]: < 10 nM
TGI [50]: 20.8 nM
GI50 [51]: 114 nM
TGI [51]: 1280 nM
GI50 [52]: 29.7 nM
TGI [52]: 537 nM
GI50 [53]: 34.8 nM
TGI [53]: 460 nM
GI50 [54]: 77.1 nM
TGI [54]: 11900 nM
GI50 [55]: 25 nM
TGI [55]: 573 nM
GI50 [56]: < 10 nM
TGI [56]: 96.4 nM
GI50 [57]: 56.9 nM
TGI [57]: 1560 nM
